Measured values as given in US20100160454A1, “ANTIMICROBIAL AGENTS, COMPOSITIONS AND PRODUCTS CONTAINING THE SAME, AND METHODS OF USING THE COMPOSITIONS AND PRODUCTS” (Eastman Chemical Company, priority 2008, published 2010).

What was measured:
Assay in all cases: Microbiological challenge testing in BPW broth, graded subculture counts
Format in all cases: cell-based
[1] = tested on: Bacillus subtilis Wild type
How it was run: (§1)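 Challenge substrates of BPW plus 1% dextrose containing the test material (w/v) or broth alone were inoculated to 10^5–10^6 CFU/mL. Bacteria had been precultured in dextrose TSB at 35 °C for at least 96 h. CFU/mL came from plate count × dilution factor on PCA after ≥48 h at 35 °C.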

[2] = tested on: Proteus vulgaris Wild type
How it was run: as §1

[3] = tested on: Aspergillus niger Wild type; details: A. niger
How it was run: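 Wild-type A. niger, grown in TSB with 1% dextrose at 22 °C and on SABD until sporulation, was adjusted to 1.0×10^8 spores/vegetative cells (hemocytometer). It was inoculated in triplicate into BPW with 1% dextrose to give 10^5 to 10^6 CFU/mL at time zero. Counts were by spread plate on SABD, ≥48 h at 22 °C, CFU/mL = count × dilution factor.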

Structure (SMILES): OCC1CCCC(CO)C1 (stereo not drawn) [1,3-CHDM, 1,3-cyclohexanedimethanol]
- B. subtillis growth grade, 3 day ([1]; 0.5% weight/volume): 4 (1000 to 10,000 colonies countable (thus 10,000 CFU/mL to 100,000 CFU/mL))
- B. subtillis growth grade, 14 day ([1]; 0.5% weight/volume): 4 (1000 to 10,000 colonies countable (thus 10,000 CFU/mL to 100,000 CFU/mL))
- B. subtillis growth grade, 30 day ([1]; 0.5% weight/volume): 4 (1000 to 10,000 colonies countable (thus 10,000 CFU/mL to 100,000 CFU/mL))
- B. subtillis growth grade, 3 day ([1]; 1.25% weight/volume): 4 (1000 to 10,000 colonies countable (thus 10,000 CFU/mL to 100,000 CFU/mL))
- B. subtillis growth grade, 14 day ([1]; 1.25% weight/volume): 4 (1000 to 10,000 colonies countable (thus 10,000 CFU/mL to 100,000 CFU/mL))
- B. subtillis growth grade, 30 day ([1]; 1.25% weight/volume): 4 (1000 to 10,000 colonies countable (thus 10,000 CFU/mL to 100,000 CFU/mL))
- B. subtillis growth grade, 3 day ([1]; 2.5% weight/volume): 4 (1000 to 10,000 colonies countable (thus 10,000 CFU/mL to 100,000 CFU/mL))
- B. subtillis growth grade, 14 day ([1]; 2.5% weight/volume): 4 (1000 to 10,000 colonies countable (thus 10,000 CFU/mL to 100,000 CFU/mL))
- B. subtillis growth grade, 30 day ([1]; 2.5% weight/volume): 4 (1000 to 10,000 colonies countable (thus 10,000 CFU/mL to 100,000 CFU/mL))
- B. subtillis growth grade, 3 day ([1]; 5.0% weight/volume): 4 (1000 to 10,000 colonies countable (thus 10,000 CFU/mL to 100,000 CFU/mL))
- B. subtillis growth grade, 14 day ([1]; 5.0% weight/volume): 4 (1000 to 10,000 colonies countable (thus 10,000 CFU/mL to 100,000 CFU/mL))
- B. subtillis growth grade, 30 day ([1]; 5.0% weight/volume): 4 (1000 to 10,000 colonies countable (thus 10,000 CFU/mL to 100,000 CFU/mL))
- P. vulgaris growth grade, 3 day ([2]; 0.5% weight/volume): 5 (More than 10,000 colonies estimated (thus more than 100,000 CFU/mL))
- P. vulgaris growth grade, 13 day ([2]; 0.5% weight/volume): 5 (More than 10,000 colonies estimated (thus more than 100,000 CFU/mL))
- P. vulgaris growth grade, 30 day ([2]; 0.5% weight/volume): 5 (More than 10,000 colonies estimated (thus more than 100,000 CFU/mL))
- P. vulgaris growth grade, 3 day ([2]; 1.25% weight/volume): 5 (More than 10,000 colonies estimated (thus more than 100,000 CFU/mL))
- P. vulgaris growth grade, 13 day ([2]; 1.25% weight/volume): 4 (1000 to 10,000 colonies countable (thus 10,000 CFU/mL to 100,000 CFU/mL))
- P. vulgaris growth grade, 30 day ([2]; 1.25% weight/volume): 4 (1000 to 10,000 colonies countable (thus 10,000 CFU/mL to 100,000 CFU/mL))
- P. vulgaris growth grade, 3 day ([2]; 2.5% weight/volume): 4 (1000 to 10,000 colonies countable (thus 10,000 CFU/mL to 100,000 CFU/mL))
- P. vulgaris growth grade, 13 day ([2]; 2.5% weight/volume): 4 (1000 to 10,000 colonies countable (thus 10,000 CFU/mL to 100,000 CFU/mL))
- P. vulgaris growth grade, 30 day ([2]; 2.5% weight/volume): 4 (1000 to 10,000 colonies countable (thus 10,000 CFU/mL to 100,000 CFU/mL))
- P. vulgaris growth grade, 3 day ([2]; 5.0% weight/volume): 4 (1000 to 10,000 colonies countable (thus 10,000 CFU/mL to 100,000 CFU/mL))
- P. vulgaris growth grade, 13 day ([2]; 5.0% weight/volume): 4 (1000 to 10,000 colonies countable (thus 10,000 CFU/mL to 100,000 CFU/mL))
- P. vulgaris growth grade, 30 day ([2]; 5.0% weight/volume): 4 (1000 to 10,000 colonies countable (thus 10,000 CFU/mL to 100,000 CFU/mL))
- Grade ([3]; 0.5% (wt/vol), 3 day): 5
- Grade ([3]; 0.5% (wt/vol), 13 day): 5
- Grade ([3]; 0.5% (wt/vol), 30 day): 5
- Grade ([3]; 1.25% (wt/vol), 3 day): 5
- Grade ([3]; 1.25% (wt/vol), 13 day): 4
- Grade ([3]; 1.25% (wt/vol), 30 day): 4
- Grade ([3]; 2.5% (wt/vol), 3 day): 4
- Grade ([3]; 2.5% (wt/vol), 13 day): 4
- Grade ([3]; 2.5% (wt/vol), 30 day): 4
- Grade ([3]; 5.0% (wt/vol), 3 day): 2 (Countable (10 to 100 colonies))
- Grade ([3]; 5.0% (wt/vol), 13 day): 2 (Countable (10 to 100 colonies))
- Grade ([3]; 5.0% (wt/vol), 30 day): 4

Structure (SMILES): OCC1CCCCC1CO (stereo not drawn) [1,2-CHDM, 1,2-cyclohexanedimethanol]
- B. subtillis growth grade, 3 day ([1]; 0.5% weight/volume): 4 (1000 to 10,000 colonies countable (thus 10,000 CFU/mL to 100,000 CFU/mL))
- B. subtillis growth grade, 14 day ([1]; 0.5% weight/volume): 3 (100 to 1000 colonies (thus 1000 to 10,000 CFU/mL))
- B. subtillis growth grade, 30 day ([1]; 0.5% weight/volume): 4 (1000 to 10,000 colonies countable (thus 10,000 CFU/mL to 100,000 CFU/mL))
- B. subtillis growth grade, 3 day ([1]; 1.25% weight/volume): 2 (52 to 100 colonies counted (thus 520 to 1000 CFU/mL))
- B. subtillis growth grade, 14 day ([1]; 1.25% weight/volume): 1 (0 to 51 colonies counted (thus 10 to 510 CFU/mL based on 0.1-mL sample))
- B. subtillis growth grade, 30 day ([1]; 1.25% weight/volume): 1 (0 to 51 colonies counted (thus 10 to 510 CFU/mL based on 0.1-mL sample))
- B. subtillis growth grade, 3 day ([1]; 2.5% weight/volume): 0
- B. subtillis growth grade, 14 day ([1]; 2.5% weight/volume): 0
- B. subtillis growth grade, 30 day ([1]; 2.5% weight/volume): 0
- B. subtillis growth grade, 3 day ([1]; 5.0% weight/volume): 0
- B. subtillis growth grade, 14 day ([1]; 5.0% weight/volume): 0
- B. subtillis growth grade, 30 day ([1]; 5.0% weight/volume): 0
- P. vulgaris growth grade, 3 day ([2]; 0.5% weight/volume): 4 (1000 to 10,000 colonies countable (thus 10,000 CFU/mL to 100,000 CFU/mL))
- P. vulgaris growth grade, 13 day ([2]; 0.5% weight/volume): 4 (1000 to 10,000 colonies countable (thus 10,000 CFU/mL to 100,000 CFU/mL))
- P. vulgaris growth grade, 30 day ([2]; 0.5% weight/volume): 4 (1000 to 10,000 colonies countable (thus 10,000 CFU/mL to 100,000 CFU/mL))
- P. vulgaris growth grade, 3 day ([2]; 1.25% weight/volume): 2.3
- P. vulgaris growth grade, 13 day ([2]; 1.25% weight/volume): 1 (0 to 51 colonies counted (thus 10 to 510 CFU/mL based on 0.1-mL sample))
- P. vulgaris growth grade, 30 day ([2]; 1.25% weight/volume): 0
- P. vulgaris growth grade, 3 day ([2]; 2.5% weight/volume): 1 (0 to 51 colonies counted (thus 10 to 510 CFU/mL based on 0.1-mL sample))
- P. vulgaris growth grade, 13 day ([2]; 2.5% weight/volume): 0
- P. vulgaris growth grade, 30 day ([2]; 2.5% weight/volume): 0
- P. vulgaris growth grade, 3 day ([2]; 5.0% weight/volume): 0
- P. vulgaris growth grade, 13 day ([2]; 5.0% weight/volume): 0
- P. vulgaris growth grade, 30 day ([2]; 5.0% weight/volume): 0
- Grade ([3]; 0.5% (wt/vol), 3 day): 4.7
- Grade ([3]; 0.5% (wt/vol), 13 day): 4
- Grade ([3]; 0.5% (wt/vol), 30 day): 4
- Grade ([3]; 1.25% (wt/vol), 3 day): 3.3
- Grade ([3]; 1.25% (wt/vol), 13 day): 3.3
- Grade ([3]; 1.25% (wt/vol), 30 day): 4
- Grade ([3]; 2.5% (wt/vol), 3 day): 2 (Countable (10 to 100 colonies))
- Grade ([3]; 2.5% (wt/vol), 13 day): 0
- Grade ([3]; 2.5% (wt/vol), 30 day): 0
- Grade ([3]; 5.0% (wt/vol), 3 day): 0
- Grade ([3]; 5.0% (wt/vol), 13 day): 0
- Grade ([3]; 5.0% (wt/vol), 30 day): 0
